Consider five substances from the OligoGym collection.

HELM strings list units from the 5' end as sugar, base in round brackets, then linkage (d deoxyribose, r ribose, m 2'-O-methyl, p phosphodiester). Strings are as the collection lists them; they lack the last nucleoside at the 3' end of the tested compound. [moe] = 2'-O-(2-methoxyethyl) (MOE); [sp] = phosphorothioate linkage; [m5C] = 5-methylcytosine

The data set deals with APP. The experiment in a line: mouse, dose not given. The settings on record: ASO.

In turn, “RNA1{[moe]([m5C])[sp].[moe]([m5C])p.[moe](T)p.[moe](T)p.[moe](T)[sp].d(G)[sp].d(T)[sp].d(T)[sp].d(T)[sp].d(G)[sp].d(A)[sp].d(A)[sp].d([m5C])[sp].d([m5C])[sp].d([m5C])[sp].[moe](A)p.[moe]([m5C])p.[moe](A)[sp].[moe](T)}$$$$ (last 3' nucleoside missing)” came in with a 3 h FOB score of 0 score 0-7.
On to “RNA1{[moe]([m5C])[sp].[moe]([m5C])p.[moe](T)p.[moe](T)p.[moe](T)[sp].d([m5C])[sp].d(A)[sp].d(A)[sp].d(T)[sp].d(A)[sp].d(T)[sp].d(T)[sp].d(G)[sp].d(T)[sp].d(T)[sp].[moe]([m5C])p.[moe](T)p.[moe](T)[sp].[moe]([m5C])}$$$$ (last 3' nucleoside missing)”, for which the 3 h FOB score is 3.33 score 0-7.
In the case of “RNA1{[moe]([m5C])[sp].[moe]([m5C])p.[moe](T)p.[moe](T)p.[moe]([m5C])[sp].d(T)[sp].d(T)[sp].d(A)[sp].d([m5C])[sp].d(A)[sp].d(A)[sp].d(T)[sp].d(T)[sp].d(A)[sp].d(T)[sp].[moe](G)p.[moe]([m5C])p.[moe](T)[sp].[moe]([m5C])}$$$$ (last 3' nucleoside missing)” it was 1 score 0-7.
In the case of “RNA1{[moe]([m5C])[sp].[moe]([m5C])p.[moe](T)p.[moe]([m5C])p.[moe](T)[sp].d(G)[sp].d([m5C])[sp].d(T)[sp].d(A)[sp].d([m5C])[sp].d(T)[sp].d(T)[sp].d([m5C])[sp].d(T)[sp].d(A)[sp].[moe]([m5C])p.[moe](T)p.[moe](A)[sp].[moe]([m5C])}$$$$ (last 3' nucleoside missing)” it was 1 score 0-7; in that of “RNA1{[moe]([m5C])[sp].[moe]([m5C])p.[moe]([m5C])p.[moe](A)p.[moe]([m5C])[sp].d(T)[sp].d(T)[sp].d([m5C])[sp].d([m5C])[sp].d([m5C])[sp].d(A)[sp].d(T)[sp].d(T)[sp].d([m5C])[sp].d(T)[sp].[moe](G)p.[moe](G)p.[moe](A)[sp].[moe]([m5C])}$$$$ (last 3' nucleoside missing)”, 0.5 score 0-7.
